Test results as given in patent US20170275275A1, “BENZENESULFONAMIDES USEFUL AS SODIUM CHANNEL INHIBITORS” (PFIZER INC., priority 2014, published 2017).
Counter-ions that a name gives are not always drawn.

Molecular target: T1, Nav1.7 (or SCN9A) channel (Homo sapiens, UniProt Q15858)
T1 construct: expressed in transfected cells
Test: Nav1.7 (hSCN9A) channel block, PatchXpress (PX) whole-cell electrophysiology in stably transfected HEK cells
Format: cell-based
Conditions: for IC50: estimated IC50 from single point electrophysiology data, PatchXpress platform, HEK cells expressing hSCN9A, clamped at V1/2 of inactivation, read-out: Nav1.7 EIC50
Description: The ability of the compounds of formula (I) to block the Nav1.7 (or SCN9A) channel was measured using the assay described below.
Human Embryonic Kidney (HEK) cells were transfected with an hSCN9A construct using lipofectamine reagent (Invitrogen), using standard techniques. Cells stably expressing the hSCN9A constructs were identified by their resistance to G-418 (400 μg/ml). Clones were screened for expression using the whole-cell voltage-clamp technique.
HEK cells stably transfected with hSCN9A were maintained in DMEM medium supplemented with 10% heat-inactivated fetal bovine serum and 400 μg/ml G-418 in an incubator at 37° C. with a humidified atmosphere of 10% CO2. For HTS, cells were harvested from flasks by trypsinization and replated in an appropriate multi-well plate (typically 96 or 384 wells/plate) such that confluence would be achieved within 24 hours of plating. Cells were typically used for electrophysiological experiments within 24 to 72 hours after plating.
For conventional whole-cell voltage clamp experiments cells were removed from the culture flask by brief trypsinization and re-plated at low density onto glass cover slips. Cover slips containing HEK cells expressing hSCN9A were placed in a bath on the stage of an inverted microscope and perfused (approximately 1 ml/minutes) with extracellular solution of the following composition: 138 mM NaCl, 2 mM CaCl2, 5.4 mM KCl, 1 mM MgCl2, 10 mM glucose, and 10 mM HEPES, pH 7.4, with NaOH. […] The osmolarity of the extracellular and intracellular solutions was 300 mOsm/kg and 295 mOsm/kg, respectively. All recordings were made at room temperature (22-24° C.) using AXOPATCH 200B amplifiers and PCLAMP software (Axon Instruments, Burlingame, Calif.). hSCN9A currents in HEK cells were measured using the whole-cell configuration of the patch-clamp technique (Hamill et al., 1981). Uncompensated series resistance was typically 2 to 5 mega ohms and >85% series resistance compensation was routinely achieved. […] Current records were acquired at 20 to 50 KHz and filtered at 5 to 10 KHz.
HEK cells stably transfected with hSCN9A were viewed under Hoffman contrast optics and placed in front of an array of flow pipes emitting either control or compound-containing extracellular solutions.
The voltage-dependence of inactivation was determined by applying a series of depolarizing prepulses (8 sec long in 10 mV increments) from a negative holding potential. The voltage was then immediately stepped to 0 mV to assess the magnitude of the sodium current. Currents elicited at 0 mV were plotted as a function of prepulse potential to allow estimation of the voltage at which 50% of the channels were inactivated (midpoint of inactivation or V1/2). Compounds were tested for their ability to inhibit hSCN9A sodium channels by activating the channel with a 20 msec voltage step […] to 0 mV following an 8 second conditioning prepulse to the empirically determined V1/2. Compound effect (% inhibition) was determined by difference in current amplitude before and after application of test compounds. For ease of comparison, “estimated IC-50” (EIC50) values were calculated from single point electrophysiology data by the following equation, (tested concentration, nM)×(100-% inhibition/% inhibition). Inhibition values <20% and >80% were excluded from the calculation.
Electrophysiological assays were conducted with PatchXpress 7000 hardware and associated software (Molecular Devices Corp). All assay buffers and solutions were identical to those used in conventional whole-cell voltage clamp experiments described above. hSCN9A cells were grown as above to 50%-80% confluency and harvested by trypsinization. Trypsinized cells were washed and resuspended in extracellular buffer at a concentration of 1×10^6 cells/ml. The onboard liquid handling facility of the PatchXpress was used for dispensing cells and application of test compounds.

T1 sequence (Q15858 whole entry): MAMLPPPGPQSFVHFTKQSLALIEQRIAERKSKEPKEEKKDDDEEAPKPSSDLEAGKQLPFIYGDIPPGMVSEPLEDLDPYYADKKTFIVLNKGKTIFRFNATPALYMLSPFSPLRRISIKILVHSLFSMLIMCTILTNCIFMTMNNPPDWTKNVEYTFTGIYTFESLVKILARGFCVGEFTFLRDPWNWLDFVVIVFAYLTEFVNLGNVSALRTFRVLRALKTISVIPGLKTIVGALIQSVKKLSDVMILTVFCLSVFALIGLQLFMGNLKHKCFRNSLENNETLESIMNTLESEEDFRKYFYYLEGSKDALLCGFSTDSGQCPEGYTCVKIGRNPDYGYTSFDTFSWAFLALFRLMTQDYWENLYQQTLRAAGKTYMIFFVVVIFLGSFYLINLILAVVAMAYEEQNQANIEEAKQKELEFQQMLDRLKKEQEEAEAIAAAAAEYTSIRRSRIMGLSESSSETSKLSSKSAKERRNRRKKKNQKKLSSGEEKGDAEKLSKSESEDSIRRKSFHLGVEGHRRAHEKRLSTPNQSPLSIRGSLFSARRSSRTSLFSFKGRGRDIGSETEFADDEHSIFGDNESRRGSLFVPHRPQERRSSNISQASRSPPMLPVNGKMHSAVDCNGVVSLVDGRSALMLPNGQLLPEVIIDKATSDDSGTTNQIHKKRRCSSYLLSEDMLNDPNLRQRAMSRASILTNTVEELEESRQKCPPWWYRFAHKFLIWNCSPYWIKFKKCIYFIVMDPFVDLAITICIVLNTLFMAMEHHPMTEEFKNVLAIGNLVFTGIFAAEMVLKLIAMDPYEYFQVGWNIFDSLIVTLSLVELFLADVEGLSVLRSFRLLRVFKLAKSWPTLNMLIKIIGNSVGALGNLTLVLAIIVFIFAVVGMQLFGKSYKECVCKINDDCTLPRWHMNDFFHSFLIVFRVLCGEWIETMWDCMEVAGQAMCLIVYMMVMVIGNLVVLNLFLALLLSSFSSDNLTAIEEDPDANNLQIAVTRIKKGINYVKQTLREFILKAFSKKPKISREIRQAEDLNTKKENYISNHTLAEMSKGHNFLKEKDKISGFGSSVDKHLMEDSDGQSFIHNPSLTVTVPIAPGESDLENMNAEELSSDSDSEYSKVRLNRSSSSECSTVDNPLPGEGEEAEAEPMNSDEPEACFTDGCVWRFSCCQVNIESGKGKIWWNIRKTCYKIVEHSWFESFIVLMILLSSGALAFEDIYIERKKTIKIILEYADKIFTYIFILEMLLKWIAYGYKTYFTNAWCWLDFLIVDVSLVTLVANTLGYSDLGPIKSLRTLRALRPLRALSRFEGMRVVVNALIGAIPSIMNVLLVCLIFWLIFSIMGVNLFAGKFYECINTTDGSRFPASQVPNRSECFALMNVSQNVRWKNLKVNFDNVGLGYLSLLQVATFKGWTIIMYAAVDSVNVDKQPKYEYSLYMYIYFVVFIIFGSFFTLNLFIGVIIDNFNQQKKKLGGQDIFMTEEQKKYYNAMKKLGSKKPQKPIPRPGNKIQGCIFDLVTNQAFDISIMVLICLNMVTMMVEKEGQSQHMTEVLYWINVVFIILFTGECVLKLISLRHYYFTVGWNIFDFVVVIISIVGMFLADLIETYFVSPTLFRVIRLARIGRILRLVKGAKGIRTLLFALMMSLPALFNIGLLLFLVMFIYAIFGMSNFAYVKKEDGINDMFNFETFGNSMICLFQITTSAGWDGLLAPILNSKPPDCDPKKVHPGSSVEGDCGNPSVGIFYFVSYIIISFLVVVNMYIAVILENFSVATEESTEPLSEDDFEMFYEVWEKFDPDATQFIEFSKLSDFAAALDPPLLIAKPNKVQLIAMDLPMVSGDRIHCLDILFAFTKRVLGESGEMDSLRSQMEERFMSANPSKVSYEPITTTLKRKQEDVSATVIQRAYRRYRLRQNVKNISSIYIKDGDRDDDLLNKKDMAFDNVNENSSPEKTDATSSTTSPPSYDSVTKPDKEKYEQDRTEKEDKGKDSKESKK

Row | Compound | inhibition at 0.03 µM (HEK293, Nav1.7, PatchXpress, 30 nM, read-out: % inhibition at 30 nM dose) [%] | IC50 [nM]
1 | O=S(=O)(Nc1cscn1)c1cc(Cl)c(Oc2ccc(-c3cccc(C(F)(F)F)c3)cc2-c2ccnc(CNCCC3CCNCC3)c2)cc1F [Example 2, 5-Chloro-2-fluoro-4-{[3-(2-{[(2-piperidin-4-ylethyl)amino]methyl}pyridin-4-yl)-3′-(trifluoromethyl)biphenyl-4-yl]oxy}-N-1,3-thiazol-4-ylbenzenesulfonamide] | 10.7 | > 30
2 | COCCOCCOCCOCCO[C@H]1CCN(Cc2cc(-c3cc(-c4cccc(C(F)(F)F)c4)ccc3Oc3ccc(S(=O)(=O)Nc4ncns4)cc3C#N)ccn2)C1 [Example 22, (S)-4-((3-(2-((3-((2,5,8,11-tetraoxatridecan-13-yl)oxy)pyrrolidin-1-yl)methyl)pyridin-4-yl)-3′-(trifluoromethyl)-[1,1′-biphenyl]-4-yl)oxy)-3-cyano-N-(1,2,4-thiadiazol-5-yl)benzenesulfonamide hemi-trifluoroacetate salt] | – | 2.6
3 | N#Cc1cc(S(=O)(=O)Nc2ncns2)ccc1Oc1ccc(-c2ccccc2)cc1-c1cccc(CNCCC2CCNCC2)c1 [Example 5, 3-Cyano-4-[(3″-{[(2-piperidin-4-ylethyl)amino]methyl}-1,1′:3′,1″-terphenyl-4′-yl)oxy]-N-1,2,4-thiadiazol-5-ylbenzenesulfonamide sodium salt] | – | 1.5
4 | N#Cc1cc(S(=O)(=O)Nc2ncns2)ccc1Oc1ccc(-c2ccccc2)cc1-c1cccc(C(=O)NCCN2CCNCC2)c1 [Example 3, 6′-{2-cyano-4-[(1,2,4-thiadiazol-5-ylamino)sulfonyl]phenoxy}-N-(2-piperazin-1-ylethyl)-1,1′:3′,1″-terphenyl-3-carboxamide] | – | 1
5 | COCCOCCOCCOC(=O)NCc1cc(-c2cc(-c3cccc(C(F)(F)F)c3)ccc2Oc2ccc(S(=O)(=O)Nc3ncns3)cc2C#N)ccn1 [Example 8, 2-[2-(2-methoxyethoxy)ethoxy]ethyl [(4-{4-[2-cyano-4-(1,2,4-thiadiazol-5-ylsulfamoyl)phenoxy]-3′-(trifluoromethyl)biphenyl-3-yl}pyridin-2-yl)methyl]carbamate triethylammonium salt] | – | 3.4
6 | COCCOCCOCCOCCOCCOCCOCCOCCOCCOCCOCCOCCC(=O)N1CCC(CCNCc2cccc(-c3cc(-c4ccccc4)ccc3Oc3ccc(S(=O)(=O)Nc4ncns4)cc3C#N)c2)CC1 [Example 31, 3-cyano-4-({3″-[({2-[1-(38-oxo-2,5,8,11,14,17,20,23,26,29,32,35-dodecaoxaoctatriacontan-38-yl)piperidin-4-yl]ethyl}amino)methyl]-1,1′:3′,1″-terphenyl-4′-yl}oxy)-N-(1,2,4-thiadiazol-5-yl)benzenesulfonamide] | – | 9.8
7 | COCCOCCOCCOCCOCCOCCOCCOCCOCCOCCOCCOCCC(=O)N1CCC(CCNCc2cc(-c3cc(-c4cccc(C(F)(F)F)c4)ccc3Oc3cc(F)c(S(=O)(=O)Nc4nncs4)cc3Cl)ccn2)CC1 [Example 33, 5-chloro-2-fluoro-4-{[3-{2-[({2-[1-(38-oxo-2,5,8,11,14,17,20,23,26,29,32,35-dodecaoxaoctatriacontan-38-yl)piperidin-4-yl]ethyl}amino)methyl]pyridin-4-yl}-3′-(trifluoromethyl)biphenyl-4-yl]oxy}-N-(1,3,4-thiadiazol-2-yl)benzenesulfonamide formate salt] | – | 1.7
8 | COCCOCCOCCOCCOCCOCCOCCOCCOCCOCCOCCOCCC(=O)NCc1cc(-c2cc(-c3cccc(C(F)(F)F)c3)ccc2Oc2cc(F)c(S(=O)(=O)Nc3cscn3)cc2Cl)ccn1 [Example 28, N-[(4-{4-[2-chloro-5-fluoro-4-(1,3-thiazol-4-ylsulfamoyl)phenoxy]-3′-(trifluoromethyl)biphenyl-3-yl}pyridin-2-yl)methyl]-2,5,8,11,14,17,20,23,26,29,32,35-dodecaoxaoctatriacontan-38-amide] | – | 241
9 | COCCOCCOCCOCCOCCOCCOCCOCCOCCOCCOCCOCCC(=O)N1CCC(CCNCc2cc(-c3cc(-c4cccc(C(F)(F)F)c4)ccc3Oc3cc(F)c(S(=O)(=O)Nc4cscn4)cc3Cl)ccn2)CC1 [Example 30, 5-chloro-2-fluoro-4-{[3-{2-[({2-[1-(38-oxo-2,5,8,11,14,17,20,23,26,29,32,35-dodecaoxaoctatriacontan-38-yl)piperidin-4-yl]ethyl}amino)methyl]pyridin-4-yl}-3′-(trifluoromethyl)biphenyl-4-yl]oxy}-N-(1,3-thiazol-4-yl)benzenesulfonamide hydrochloride salt] | – | 23.9
10 | COCCOCCOCCOCCOCCOCCOCCOCCOCCOCCOCCOCCC(=O)N1CCN(c2cc(-c3cc(-c4ccc(C(F)(F)F)cc4)ccc3Oc3ccc(S(=O)(=O)Nc4ncns4)cc3C#N)ccn2)CC1 [Example 24, 4-((3-(2-(4-(2,5,8,11,14,17,20,23,26,29,32,35-dodecaoxaoctatriacontan-38-oyl)piperazin-1-yl)pyridin-4-yl)-4′-(trifluoromethyl)-[1,1′-biphenyl]-4-yl)oxy)-3-cyano-N-(1,2,4-thiadiazol-5-yl)benzenesulfonamide] | – | 13.4
11 | COCCOCCOCCOCCOCCOCCOCCOCCOCCOCCOCCOCCC(=O)N1CCN(c2cc(-c3cc(-c4ccc(C(F)(F)F)cc4)ccc3Oc3cc(F)c(S(=O)(=O)Nc4nncs4)cc3Cl)ccn2)CC1 [Example 32, 5-chloro-2-fluoro-4-{[3-{2-[4-(38-oxo-2,5,8,11,14,17,20,23,26,29,32,35-dodecaoxaoctatriacontan-38-yl)piperazin-1-yl]pyridin-4-yl}-4′-(trifluoromethyl)biphenyl-4-yl]oxy}-N-(1,3,4-thiadiazol-2-yl)benzenesulfonamide] | – | 16

The remaining lines, values ahead:

Row | inhibition at 0.03 µM (HEK293, Nav1.7, PatchXpress, 30 nM, read-out: % inhibition at 30 nM dose) [%] | IC50 [nM] | Compound
12 | – | 4.7 | COCCOCCOCCOCCNCCOCc1cc(-c2cc(-c3cccc(C(F)(F)F)c3)ccc2Oc2ccc(S(=O)(=O)Nc3ncns3)cc2C#N)ccn1 [Example 10, 4-((3-(2-(2,8,11,14,17-pentaoxa-5-azaoctadecyl)pyridin-4-yl)-3′-(trifluoromethyl)-[1,1′-biphenyl]-4-yl)oxy)-3-cyano-N-(1,2,4-thiadiazol-5-yl)benzenesulfonamide]
13 | – | 5 | COCCOCCOCCOCCNC(=O)COCc1cc(-c2cc(-c3cccc(C(F)(F)F)c3)ccc2Oc2ccc(S(=O)(=O)Nc3ncns3)cc2C#N)ccn1 [Example 14, 2-((4-(4-(4-(N-(1,2,4-thiadiazol-5-yl)sulfamoyl)-2-cyanophenoxy)-3′-(trifluoromethyl)-[1,1′-biphenyl]-3-yl)pyridin-2-yl)methoxy)-N-(2,5,8,11-tetraoxatridecan-13-yl)acetamide]
14 | – | 10.9 | COCCOCCOCCOCCNC(=O)NCc1cc(-c2cc(-c3cccc(C(F)(F)F)c3)ccc2Oc2ccc(S(=O)(=O)Nc3ncns3)cc2C#N)ccn1 [Example 9, 3-cyano-4-((3-(2-(3-oxo-7,10,13,16-tetraoxa-2,4-diazaheptadecyl)pyridin-4-yl)-3′-(trifluoromethyl)-[1,1′-biphenyl]-4-yl)oxy)-N-(1,2,4-thiadiazol-5-yl)benzenesulfonamide triethylammonium salt]
15 | – | 13 | COCCOCCOCCOCCOCc1cc(-c2cc(-c3cccc(C(F)(F)F)c3)ccc2Oc2ccc(S(=O)(=O)Nc3ncns3)cc2C#N)ccn1 [Example 13, 3-cyano-4-({3-[2-(2,5,8,11,14-pentaoxapentadec-1-yl)pyridin-4-yl]-3′-(trifluoromethyl)biphenyl-4-yl}oxy)-N-(1,2,4-thiadiazol-5-yl)benzenesulfonamide]
16 | – | 1 | COCCOCCOCCOCCOC1CN(Cc2cc(-c3cc(-c4cccc(C(F)(F)F)c4)ccc3Oc3ccc(S(=O)(=O)Nc4ncns4)cc3C#N)ccn2)C1 [Example 20, hemi trifluoroacetate salt]
